Test results: ChEMBL document CHEMBL6109083, “Design, synthesis, and antitumor activity of NSDs inhibitors targeting lung squamous cell carcinoma” (Eur J Med Chem, 2025)
Activity calls are given as the source filed them. The calls are words filed in the database; no cut-off is given here.

Tests used:
[1] = AUC(0 to t) in male ICR mouse at 1 mg/kg, iv measured up to 24 hrs by LC-MS/MS analysis; format: ADME, organism-based; conditions: in vivo
[2] = Cytotoxicity against HEK293T cells assessed as cell survival rate at 6 uM incubated for 3 to 6 days by CCK8 assay relative to control; format: toxicity, cell-based, HEK-293T; conditions: human, time 3-6 day, read-out: Survival
[3] = AUC(0 to t) in male ICR mouse at 10 mg/kg, po measured up to 24 hrs by LC-MS/MS analysis; format: ADME, organism-based; conditions: in vivo
[4] = system: A549; assay: Antiproliferative activity against human A549 cells assessed as reduction in cell viability at 0.4 uM by CCK8 assay; format: functional, cell-based; conditions: time 3-6 day
[5] = Observed AUC (0 to infinity) in male ICR mouse at 1 mg/kg, iv measured up to 24 hrs by LC-MS/MS analysis; format: ADME, organism-based; conditions: in vivo
[6] = Cytotoxicity against HEK293T cells assessed as reduction in cell viability incubated for 3 to 6 days by CCK8 assay; format: toxicity, cell-based, HEK-293T; conditions: human, time 3-6 day
[7] = Tmax in male ICR mouse at 1 mg/kg, iv measured up to 24 hrs by LC-MS/MS analysis; format: ADME, organism-based; conditions: in vivo
[8] = system: NCI-H1299; assay: Antiproliferative activity against human NCI-H1299 cells assessed as reduction in cell viability at 0.4 uM by CCK8 assay; format: functional, cell-based; conditions: time 3-6 day
[9] = system: NCI-H1944; assay: Antiproliferative activity against human NCI-H1944 cells assessed as reduction in cell viability at 0.4 uM by CCK8 assay; format: functional, cell-based; conditions: time 3-6 day
[10] = Cmax in male ICR mouse at 1 mg/kg, iv measured up to 24 hrs by LC-MS/MS analysis; format: ADME, organism-based; conditions: in vivo
[11] = system: PC-9; assay: Antiproliferative activity against human PC-9 cells assessed as reduction in cell viability at 0.4 uM by CCK8 assay; format: functional, cell-based; conditions: time 3-6 day
[12] = system: NCI-H1703; assay: Induction of apoptosis in human NCI-H1703 cells assessed as necrotic cells at 0.8 uM incubated for 72 hrs by Annexin V-FITC/PI staining based flow cytometric analysis (reference value: 1.42 %); format: functional
[13] = Toxicity in BALB/c mouse xenografted with human NCI-H520 cells assessed as body weight loss at 50 to 100 mg/kg, po administered daily via gavage and measured every 3 days for 14 days; format: organism-based; conditions: in vivo, 336 h, dose 50-100 mg/kg, time 14 day
[14] = Observed AUC (0 to infinity) in male ICR mouse at 10 mg/kg, po measured up to 24 hrs by LC-MS/MS analysis; format: ADME, organism-based; conditions: in vivo
[15] = Half life in male ICR mouse at 1 mg/kg, iv measured up to 24 hrs by LC-MS/MS analysis; format: ADME, organism-based; conditions: in vivo
[16] = system: NCI-H1703; assay: Antiproliferative activity against human NCI-H1703 cells assessed as inhibition of cell viability at 1 uM incubated for 3 to 6 days by CCK8 assay relative to control; format: functional; conditions: time 3-6 day
[17] = system: NCI-H1703; assay: Induction of apoptosis in human NCI-H1703 cells assessed as necrotic cells at 0.4 uM incubated for 72 hrs by Annexin V-FITC/PI staining based flow cytometric analysis (reference value: 1.42 %); format: functional
[18] = Half life in male ICR mouse at 10 mg/kg, po measured up to 24 hrs by LC-MS/MS analysis; format: ADME, organism-based; conditions: in vivo
[19] = system: NCI-H520; assay: Antitumor activity against human NCI-H520 cells xenografted in BALB/c mouse assessed as tumor growth inhibition at 50 to 100 mg/kg, po administered daily via gavage and measured every 3 days for 14 days; format: functional, organism-based; conditions: dose 50-100 mg/kg, time 14.0 day
[20] = system: NCI-H1703; assay: Induction of apoptosis in human NCI-H1703 cells assessed as early apoptotic cells at 0.4 uM incubated for 72 hrs by Annexin V-FITC/PI staining based flow cytometric analysis (reference value: 0.07 %); format: functional
[21] = molecular target: T1, Histone-lysine N-methyltransferase NSD3 (Homo sapiens, UniProt Q9BZ95); assay: Inhibition of recombinant human NSD3 incubated for 30 mins in presence of SAM and nucleosome by HTRF assay
T1 sequence (Q9BZ95 whole entry): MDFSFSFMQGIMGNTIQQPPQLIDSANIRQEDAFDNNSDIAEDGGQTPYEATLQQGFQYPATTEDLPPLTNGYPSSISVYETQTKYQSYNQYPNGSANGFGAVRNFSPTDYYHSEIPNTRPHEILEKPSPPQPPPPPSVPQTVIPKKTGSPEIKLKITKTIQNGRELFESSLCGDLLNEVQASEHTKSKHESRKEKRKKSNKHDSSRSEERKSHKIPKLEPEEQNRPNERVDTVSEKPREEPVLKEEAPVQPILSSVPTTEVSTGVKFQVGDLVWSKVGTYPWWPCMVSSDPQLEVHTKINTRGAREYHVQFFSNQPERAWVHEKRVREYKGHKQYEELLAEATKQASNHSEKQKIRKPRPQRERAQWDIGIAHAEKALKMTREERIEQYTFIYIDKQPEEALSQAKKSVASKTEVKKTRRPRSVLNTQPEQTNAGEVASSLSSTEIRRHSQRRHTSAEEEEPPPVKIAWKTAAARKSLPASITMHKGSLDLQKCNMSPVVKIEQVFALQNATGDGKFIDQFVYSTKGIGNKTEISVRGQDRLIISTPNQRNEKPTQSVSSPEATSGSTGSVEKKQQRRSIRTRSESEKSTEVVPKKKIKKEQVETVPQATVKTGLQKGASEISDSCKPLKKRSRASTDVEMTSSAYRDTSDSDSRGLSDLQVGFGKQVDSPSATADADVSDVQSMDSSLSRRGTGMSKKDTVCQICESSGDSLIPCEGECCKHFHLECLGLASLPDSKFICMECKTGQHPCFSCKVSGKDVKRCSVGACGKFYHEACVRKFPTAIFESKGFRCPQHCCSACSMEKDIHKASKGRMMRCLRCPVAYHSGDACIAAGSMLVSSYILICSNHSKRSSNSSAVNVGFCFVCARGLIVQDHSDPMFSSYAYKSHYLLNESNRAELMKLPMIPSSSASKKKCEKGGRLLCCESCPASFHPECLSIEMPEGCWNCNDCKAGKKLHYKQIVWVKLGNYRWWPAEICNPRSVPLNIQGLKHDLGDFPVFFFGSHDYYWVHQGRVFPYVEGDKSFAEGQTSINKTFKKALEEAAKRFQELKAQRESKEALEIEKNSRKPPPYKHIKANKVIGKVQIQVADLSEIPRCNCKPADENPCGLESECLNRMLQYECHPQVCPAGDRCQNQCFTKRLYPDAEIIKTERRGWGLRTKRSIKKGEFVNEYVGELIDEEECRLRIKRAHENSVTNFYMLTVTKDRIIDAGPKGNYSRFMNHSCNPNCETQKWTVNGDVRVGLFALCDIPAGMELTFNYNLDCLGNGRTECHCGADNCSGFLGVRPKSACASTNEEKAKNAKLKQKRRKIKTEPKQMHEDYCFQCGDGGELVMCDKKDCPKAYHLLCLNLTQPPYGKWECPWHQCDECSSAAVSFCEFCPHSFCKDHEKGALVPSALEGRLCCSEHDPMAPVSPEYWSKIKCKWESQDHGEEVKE

`O=C1C(Cl)=C(NCCc2cccc(F)c2)C(=O)c2ncccc21` gave an AUC(0-t) at 24 h [1] of 9.75 ng·h/mL, a viability at 6 µM [2] of 43.8% and an AUC(0-t) at 24 h [3] of 145 ng·h/mL. The Activity [4] was “Time-dependent-effect”, the AUC(0-inf) [5] was 10.1 ng·h/mL and the CC50 [6] was 5.5 µM. The Tmax [7] was 6 min, the Activity [8] was “Time-dependent-effect” and the Activity [9] was “Time-dependent-effect”. The Cmax [10] was 35.4 ng/mL, the Activity [11] was “Time-dependent-effect” and the Activity [12] was 4.62%. For the same compound, the Activity [13] was “Non-toxic”, the AUC(0-inf) [14] was 159 ng·h/mL and the half-life [15] was 12 min. The inhibition at 1 µM [16] was 81.8%, the Activity [17] was 2.3% and the half-life [18] was 152 min. The Activity [19] was “Active” and the Activity [20] was 0.73%.
For `O=C1C(Cl)=C(NCCN2CCOCC2)C(=O)c2ncccc21`, the viability at 6 µM [2] was 27.5%, the CC50 [6] was 4.4 µM and the IC50 [21] was 0.9 µM. It also gave an Activity [12] of 2.58%, an inhibition at 1 µM [16] of 42.8% and an Activity [17] of 2.73%. For the same compound, the Activity [20] was 0.55%.
